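Five concentrations, 48 hours, 96-well plates. At the GI50, growth is halved.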 Calls of active or inactive are those of the source. Cut-off read from the data, not from the text of the source: active = GI50 up to about 1.1 µM and inactive = higher. Where only a bound is given, the exact number is not on record here.

Test systems include NCI-H522; UACC-62; PC-3; SW-620; ACHN; HOP-62; BT-549; NCI/ADR-RES; SK-OV-3; Malme-3M; Hs-578T; HCT-116; SR; SN12C; CCRF-CEM; MCF7; SK-MEL-28; T47D; A549; SNB-75.
Test in all cases: inhibition of tumour cell growth, NCI panel, 48 h

As to `COc1ccc2c(cnc3c4cc(OC)c(OC)cc4ccc23)c1`, the GI50 with NCI-H522, in the test with UACC-62, with PC-3, in the test on SW-620, in the test on ACHN and with HOP-62 was > 100 µM (inactive) throughout. Moreover, the GI50 in the test with BT-549, in the test with NCI/ADR-RES, in the test on SK-OV-3, in the test with Malme-3M, in the test with Hs-578T and with HCT-116 was > 100 µM (inactive) each time. For the same compound, the GI50 in the test with SR, in the test with SN12C, in the test on CCRF-CEM, in the test on MCF7, with SK-MEL-28 and in the test with T47D was > 100 µM (inactive) in each case. Moreover, the GI50 in the test on A549 was > 100 µM (inactive).

On to `COc1ccc(CCN2CCN(CCCc3ccccc3)CC2)cc1`, for which the GI50 with NCI-H522, in the test with UACC-62, with PC-3, with SW-620, with ACHN and in the test on HOP-62 was > 100 µM (inactive) throughout. Further, the GI50 in the test with BT-549 is 70.5 µM (inactive); in the test with NCI/ADR-RES, 83 µM (inactive); in the test on SK-OV-3, > 100 µM (inactive); in the test with Malme-3M, > 100 µM (inactive); with Hs-578T, > 100 µM (inactive); in the test with HCT-116, > 100 µM (inactive). The GI50 with SR was 47.8 µM (inactive); in the test with SN12C, > 100 µM (inactive); in the test on CCRF-CEM, > 100 µM (inactive); in the test on MCF7, > 100 µM (inactive); in the test with SK-MEL-28 it was > 100 µM (inactive); in the test on T47D, 34 µM (inactive). For the same compound, in the test with A549, the GI50 was > 100 µM (inactive).

Consider `NCCCNc1ccc2c3c(nn2CCNCCO)-c2c(O)ccc(O)c2C(=O)c13`, for which the GI50 was 1.18 µM (inactive) in the test with NCI-H522; 0.883 µM (active) in the test with UACC-62; 2.84 µM (inactive) with PC-3; 1.15 µM (inactive) with SW-620; 0.989 µM (active) in the test on ACHN; 0.362 µM (active) in the test on HOP-62. In addition, the GI50 in the test with BT-549 was 0.695 µM (active); with NCI/ADR-RES it was 29.7 µM (inactive); with SK-OV-3, 1.28 µM (inactive); in the test on Malme-3M, 1.51 µM (inactive); in the test on Hs-578T, 0.787 µM (active); with SR, 0.253 µM (active). Also, the values for the GI50 in the test with MCF7, in the test with T47D and with SNB-75 were 0.418 µM (active), 2.18 µM (inactive) and 0.889 µM (active), respectively.

Turning to `O=C1C=CC(=O)N1n1c(Cc2ccccc2)n[nH]c1=O`, the GI50 with NCI-H522, in the test with UACC-62, in the test on PC-3, with SW-620, in the test with ACHN and in the test with HOP-62 was > 100 µM (inactive) each time. For the same compound, the GI50 with BT-549, in the test on NCI/ADR-RES, with SK-OV-3, with Malme-3M, in the test on Hs-578T and with HCT-116 was > 100 µM (inactive) throughout. Further, the GI50 in the test with SR, in the test on SN12C, in the test with CCRF-CEM, with MCF7, in the test with SK-MEL-28 and in the test on T47D was > 100 µM (inactive) throughout. In the test on A549, the GI50 was > 100 µM (inactive).

Consider `CCCC[N+](CCCC)(CCCC)CCCC.O=S(=O)([O-])ON=C1c2ccccc2-c2ccccc21`, for which the GI50 with NCI-H522 was 47.2 µM (inactive); with UACC-62 it was > 100 µM (inactive); with PC-3, > 100 µM (inactive); with SW-620 it was > 100 µM (inactive); with ACHN, > 100 µM (inactive); in the test on HOP-62, > 100 µM (inactive). The GI50 in the test on BT-549, in the test on NCI/ADR-RES, in the test on SK-OV-3, in the test with Hs-578T, in the test on HCT-116 and in the test with SR was > 100 µM (inactive) in each case. Besides, the GI50 in the test on SN12C, in the test on CCRF-CEM, with MCF7, with SK-MEL-28, in the test with T47D and in the test with A549 was > 100 µM (inactive) throughout. Further, in the test on SNB-75, the GI50 is > 100 µM (inactive).

As for `Oc1c(Br)cc(Br)cc1CN(Cc1cc(Br)cc(Br)c1O)C1CCCCC1`, the GI50 was 15.3 µM (inactive) in the test on NCI-H522; 31.3 µM (inactive) in the test with UACC-62; 21.1 µM (inactive) in the test on PC-3; 29.7 µM (inactive) in the test on SW-620; 31.1 µM (inactive) in the test on ACHN; 24.4 µM (inactive) with HOP-62. Moreover, the GI50 in the test with BT-549 is 33.1 µM (inactive); in the test on NCI/ADR-RES, 39.9 µM (inactive); in the test with SK-OV-3, 44.6 µM (inactive); with Malme-3M, 21.2 µM (inactive); in the test on Hs-578T, 17.2 µM (inactive); with HCT-116 it was 33.4 µM (inactive). Also, the GI50 in the test on SR was 32.4 µM (inactive); with SN12C, 33.2 µM (inactive); in the test on MCF7, 25.5 µM (inactive); in the test with SK-MEL-28, 48.1 µM (inactive); in the test with T47D, 32.4 µM (inactive); in the test with A549 it was 30.9 µM (inactive). In addition, the GI50 with SNB-75 is 24.6 µM (inactive).

`CC(NC(=O)C(Cc1ccc(OC(=O)c2ccccc2)cc1)NC(=O)OC(C)(C)C)C(=O)NCC(=O)NC(Cc1ccccc1)C(=O)NN` (stereo unspecified): the GI50 was 29.6 µM (inactive) in the test with NCI-H522; 40.6 µM (inactive) in the test on UACC-62; 24.2 µM (inactive) in the test on PC-3; 29.3 µM (inactive) with SW-620; > 100 µM (inactive) in the test on ACHN; 83 µM (inactive) in the test with HOP-62. Besides, the GI50 in the test with BT-549 is 55.5 µM (inactive); with NCI/ADR-RES it was > 100 µM (inactive); in the test on SK-OV-3, > 100 µM (inactive); in the test on Malme-3M it was 64.9 µM (inactive); in the test on Hs-578T, 32.7 µM (inactive); with HCT-116, 43.1 µM (inactive). For the same compound, the GI50 with SR is 13.6 µM (inactive); with SN12C, > 10 µM (inactive); with MCF7, 40.9 µM (inactive); with SK-MEL-28 it was 35.7 µM (inactive); in the test on T47D it was 62.8 µM (inactive); in the test on A549, > 100 µM (inactive). Also, the GI50 in the test on SNB-75 was 25.6 µM (inactive).

`OCC1OC(NC(=S)NCCC(F)(F)C(F)(F)C(F)(F)C(F)(F)C(F)(F)C(F)(F)F)C(O)C(O)C1O` (stereo unspecified): the GI50 was 67.9 µM (inactive) with UACC-62; 43 µM (inactive) in the test with PC-3; > 100 µM (inactive) in the test with SW-620; 88.1 µM (inactive) in the test with ACHN; 71.4 µM (inactive) in the test on HOP-62; > 100 µM (inactive) in the test on BT-549. In addition, the GI50 in the test on NCI/ADR-RES was > 100 µM (inactive); in the test with SK-OV-3, > 100 µM (inactive); in the test on Malme-3M, > 100 µM (inactive); in the test on Hs-578T, > 100 µM (inactive); in the test with HCT-116, 80.4 µM (inactive); in the test on SR, > 100 µM (inactive). In addition, the GI50 in the test with SN12C is > 100 µM (inactive); in the test on CCRF-CEM it was 38.3 µM (inactive); in the test with MCF7, > 100 µM (inactive); with SK-MEL-28 it was 72.9 µM (inactive); with T47D it was > 100 µM (inactive); in the test on A549, > 100 µM (inactive). Further, in the test with SNB-75, the GI50 is > 100 µM (inactive).

Take `CCN1C(=S)n2cccc2C1CC(=O)c1ccc(Cl)cc1` (stereo unspecified): the GI50 in the test on NCI-H522 was 15.5 µM (inactive); in the test with UACC-62 it was 62.2 µM (inactive); in the test on PC-3, 40.2 µM (inactive); in the test with SW-620, 42.9 µM (inactive); in the test with ACHN it was > 100 µM (inactive); in the test with HOP-62, > 100 µM (inactive). For the same compound, the GI50 was 64.9 µM (inactive) in the test on BT-549; 42.4 µM (inactive) in the test on NCI/ADR-RES; > 100 µM (inactive) in the test with SK-OV-3; 57.3 µM (inactive) in the test on Malme-3M; > 100 µM (inactive) in the test on Hs-578T; 33 µM (inactive) in the test on HCT-116. Also, the GI50 in the test on SR was 57 µM (inactive); in the test on SN12C it was > 100 µM (inactive); in the test on MCF7, 24.8 µM (inactive); in the test on SK-MEL-28 it was 54.1 µM (inactive); with T47D, 56.6 µM (inactive); in the test with A549 it was 15.3 µM (inactive). The GI50 in the test with SNB-75 was 54.7 µM (inactive).

As to `Cc1ccc(O)c(-c2cc(-c3cccc(Br)c3)on2)c1`, the GI50 is 28.6 µM (inactive) in the test on UACC-62; 45.6 µM (inactive) with PC-3; 19.8 µM (inactive) in the test on SW-620; 35.6 µM (inactive) with ACHN; 47.8 µM (inactive) with HOP-62; 27.7 µM (inactive) in the test with BT-549. Moreover, the GI50 is 31.8 µM (inactive) in the test with NCI/ADR-RES; 21.3 µM (inactive) with SK-OV-3; 32.6 µM (inactive) with Malme-3M; 44.6 µM (inactive) in the test on Hs-578T; 20 µM (inactive) with HCT-116; 25.1 µM (inactive) with SR. Moreover, the GI50 in the test on SN12C is 23.8 µM (inactive); in the test with CCRF-CEM, 26.9 µM (inactive); with MCF7, 13.2 µM (inactive); in the test on SK-MEL-28, 23.8 µM (inactive); in the test on T47D it was 28.2 µM (inactive); in the test on A549, 29.4 µM (inactive). Besides, the GI50 in the test with SNB-75 is 12.2 µM (inactive).

Source of the values: ChEMBL document CHEMBL1201862, “PubChem BioAssay data set” (2004).
